Literature values as cited in publication PMC7511286 (European Journal of Drug Metabolism and Pharmacokinetics, 2020).

Experiments:
[1] = hepatocytes across different species; ref data on file; cited from earlier work
CYP2C9 = conditions: human liver microsomes, recombinant enzymes; ref data on file; cited from earlier work
CYP2C8 = conditions: human liver microsomes, recombinant enzymes; ref data on file; cited from earlier work
[2] = system: human mitochondrial enzyme dihydroorotate dehydrogenase (DHODH); conditions: cited from earlier work
stimulated immune cells = conditions: cited from earlier work
[3] = free acid, multiple-dose phase 1 study; cited from earlier work

COc1cccc(-c2ccc(NC(=O)C3=C(C(=O)O)CCC3)c(F)c2)c1 [vidofludimus]
number of metabolites identified [1]: eight | contribution of CYP isoform to metabolism (CYP2C9): smaller contributions | contribution of CYP isoform to metabolism (CYP2C8): predominant hepatic CYP isoform | inhibition of DHODH [2]: potent and selective inhibitor | inhibition of IL-17 and IFN-γ release (stimulated immune cells): very potent inhibitor | daily dose at which cases of hematuria occurred [3]: 70 mg
